Series [1] can be described thus: Cytotoxic effect on RAW 264.7 using MTT assay. To be noted: mouse, RAW 264.7 cells. The series is classed as cell-based.
Series [2] deals with NO production in RAW264.7 stimulated by LPS. The experiment in a line: NO production in LPS-stimulated RAW 264.7. The series is classed as cell-based. To be noted: Mus musculus, RAW264.7, read-out: % inhibition of NO production.
Series [3] addresses acetylcholinesterase (AChE) (Homo sapiens, UniProt P22303). The experiment in a line: Acetylcholinesterase inhibition assay. The series is classed as biochemical.
Series [4] relates to IL-6. The experiment in a line: IL-6 level in LPS-induced RAW 264.7. The format is cell-based.
Series [5] relates to TNF-α. The experiment in a line: TNF-α level in LPS-induced RAW 264.7. Conditions: RAW 264.7, in comparison to LPS treated cells. The format is cell-based.
The nature of series [6]: In vitro hydrolysis / chemical stability in buffers. The format is physicochemical. To be noted: 0.1 M HCl (simulated gastric conditions), pH 1.4.
For series [7], the system named is IL-1β. Put plainly: IL-1β level in LPS-induced RAW 264.7. The series is classed as cell-based. Conditions: RAW 264.7, in comparison to LPS treated cells.
In series [8] the test system is SK-N-SH Cells. Conditions: Aβ-induced SK-N-SH cells, increased from 20%; cited from earlier work.
Series [9] deals with TNF. Conditions: 20 μM, LPS stimulated RAW264.7; cited from earlier work.

Results on 18 compounds are retold here after article PMC10463010 (RSC Advances, 2023).

acetylcholinesterase (AChE), sequence (P22303 32-614, species assumed): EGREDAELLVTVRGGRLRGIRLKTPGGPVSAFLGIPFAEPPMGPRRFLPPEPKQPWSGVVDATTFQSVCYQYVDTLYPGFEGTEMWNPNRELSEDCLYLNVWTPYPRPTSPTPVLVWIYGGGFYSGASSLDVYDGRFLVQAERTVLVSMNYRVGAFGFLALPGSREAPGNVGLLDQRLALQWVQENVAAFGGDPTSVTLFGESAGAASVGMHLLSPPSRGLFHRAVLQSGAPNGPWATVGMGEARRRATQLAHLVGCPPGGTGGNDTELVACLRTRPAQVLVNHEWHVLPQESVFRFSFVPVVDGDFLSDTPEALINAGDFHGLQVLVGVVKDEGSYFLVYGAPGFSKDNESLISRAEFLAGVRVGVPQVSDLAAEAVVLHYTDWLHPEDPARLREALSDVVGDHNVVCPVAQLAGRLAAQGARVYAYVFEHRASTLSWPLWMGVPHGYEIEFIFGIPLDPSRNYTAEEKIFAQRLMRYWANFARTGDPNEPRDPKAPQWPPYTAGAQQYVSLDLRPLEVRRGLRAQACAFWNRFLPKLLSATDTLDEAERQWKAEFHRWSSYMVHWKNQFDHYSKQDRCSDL

Consider `Cc1ccc(C(C)C)c(OC(=O)Cn2cc(COC(=O)Cn3cnc4c3c(=O)n(C)c(=O)n4C)nn2)c1` [15b, (1-(2-(2-Isopropyl-5-methylphenoxy)-2-oxoethyl)-1H-1,2,3-triazol-4-yl)methyl-2-(1,3-dimethyl-2,6-dioxo-1,2,3,6-tetrahydro-7H-purin-7-yl)acetate], for which the viability at 24 h, 50 µM in series [1] was found to be 97 ± 0.6%. Besides, in [2], the inhibition at 25 µM amounted to 68.6 ± 0.92%.
On to `Cn1c(=O)c2c(ncn2CC(=O)OCc2cn(-c3cc(=O)oc4ccccc34)nn2)n(C)c1=O` [15c, (1-(2-Oxo-2H-chromen-4-yl)-1H-1,2,3-triazol-4-yl)methyl-2-(1,3-dimethyl-2,6-dioxo-1,2,3,6-tetrahydro-7H-purin-7-yl)acetate], for which the viability at 24 h, 50 µM in series [1] was determined as 88 ± 0.8%. 9.8 ± 0.7 µM corresponded to half-maximal inhibition in series [3] (IC50). Also, the inhibition at 25 µM in series [2] is 85 ± 0.88%.
With `Cn1c(=O)c2c(ncn2CC(=O)N/N=C/c2ccccc2)n(C)c1=O` [18a, E-N′-Benzylidene-2-(1,3-dimethyl-2,6-dioxo-1,2,3,6-tetrahydro-7H-purin-7-yl)acetohydrazide], in [1], the viability at 24 h, 50 µM is 94 ± 0.2%. Moreover, the inhibition at 25 µM in series [2] is 65.4 ± 0.84%.
For `Cn1c(=O)c2c(ncn2CC(=O)N/N=C/c2ccc(O)cc2)n(C)c1=O` [18b, (E)-2-(1,3-Dimethyl-2,6-dioxo-1,2,3,6-tetrahydro-7H-purin-7-yl)-N′-(4-hydroxybenzylidene)acetohydrazide] the same measures were 87 ± 0.8% and 71.8 ± 0.9%.
In the case of `COc1ccc(OC)c(/C=N/NC(=O)Cn2cnc3c2c(=O)n(C)c(=O)n3C)c1` [18c, E-N′-(2,5-Dimethoxybenzylidene)-2-(1,3-dimethyl-2,6-dioxo-1,2,3,6-tetrahydro-7H-purin-7-yl)acetohydrazide], the viability at 24 h, 50 µM in series [1] was determined as 88 ± 0.8%. In addition, the inhibition at 25 µM in [2] came to 75 ± 0.88%.
As to `COc1ccc(/C=N/NC(=O)Cn2cnc3c2c(=O)n(C)c(=O)n3C)cc1OC` [18d, E-N′-(3,4-Dimethoxybenzylidene)-2-(1,3-dimethyl-2,6-dioxo-1,2,3,6-tetrahydro-7H-purin-7-yl)acetohydrazide], the viability at 24 h, 50 µM in [1] turned out to be 90 ± 1%. Further, the inhibition at 25 µM in series [2] was determined as 70.7 ± 0.87%.
Turning to `COc1cc(/C=N/NC(=O)Cn2cnc3c2c(=O)n(C)c(=O)n3C)cc(OC)c1OC` [18e, (E)-2-(1,3-Dimethyl-2,6-dioxo-1,2,3,6-tetrahydro-7H-purin-7-yl)-N′-(3,4,5-trimethoxybenzylidene)acetohydrazide], in series [1], the viability at 24 h, 50 µM turned out to be 92 ± 1%. The inhibition at 25 µM in [2] was determined as 71.8 ± 0.9%.
For `COc1cccc(/C=N/NC(=O)Cn2cnc3c2c(=O)n(C)c(=O)n3C)c1` [18f, (E)-2-(1,3-Dimethyl-2,6-dioxo-1,2,3,6-tetrahydro-7H-purin-7-yl)-N′-(3-methoxybenzylidene)acetohydrazide] the same measures were 91 ± 1% and 63.2 ± 0.93%.
Take `Cn1c(=O)c2c(ncn2CC(=O)N/N=C/c2ccccc2O)n(C)c1=O` [18g, (E)-2-(1,3-Dimethyl-2,6-dioxo-1,2,3,6-tetrahydro-7H-purin-7-yl)-N′-(2-hydroxybenzylidene)acetohydrazide]: in [1], the viability at 24 h, 50 µM turned out to be 92 ± 1%. Also, in series [2], the inhibition at 25 µM came out at 66.4 ± 0.79%.
On the same counts, the results for `Cn1c(=O)c2c(ncn2CC(=O)N/N=C/c2ccc3c(c2)OCO3)n(C)c1=O` [18h, (E)-N′-(Benzo[d][1,3]dioxol-5-ylmethylene)-2-(1,3-dimethyl-2,6-dioxo-1,2,3,6-tetrahydro-7H-purin-7-yl)acetohydrazide] are 93 ± 1% and 96.6 ± 0.87%.
For `COc1ccc(/C=N/NC(=O)Cn2cnc3c2c(=O)n(C)c(=O)n3C)cc1O` [18i, (E)-2-(1,3-Dimethyl-2,6-dioxo-1,2,3,6-tetrahydro-7H-purin-7-yl)-N′-(3-hydroxy-4-methoxybenzylidene)acetohydrazide] the same measures were 105 ± 1.2% and 63.2 ± 0.93%.
Consider `COc1cc(/C=N/NC(=O)Cn2cnc3c2c(=O)n(C)c(=O)n3C)ccc1O` [18j, (E)-2-(1,3-Dimethyl-2,6-dioxo-1,2,3,6-tetrahydro-7H-purin-7-yl)-N′-(4-hydroxy-3-methoxybenzylidene)acetohydrazide], for which, in series [1], the viability at 24 h, 50 µM was determined as 89 ± 1%. For the same compound, half-maximal inhibition in [3] (IC50) was put at 14.6 ± 0.5 µM. In addition, the inhibition at 25 µM in [2] came out at 92.2 ± 0.86%.
As to `COc1ccc(/C=N/NC(=O)Cn2cnc3c2c(=O)n(C)c(=O)n3C)cc1` [18l, (E)-2-(1,3-Dimethyl-2,6-dioxo-1,2,3,6-tetrahydro-7H-purin-7-yl)-N′-(4-methoxybenzylidene)acetohydrazide], the viability at 24 h, 50 µM in [1] is 93 ± 1%. For the same compound, the inhibition at 25 µM in [2] stood at 85.4 ± 0.87%.
With `COC(=O)[C@@H](N)CCCNC(N)=N[N+](=O)[O-]` [L-NAME, L-NG-nitro arginine methyl ester, reference compound], the inhibition at 250 µM in series [2] worked out at 84.8 ± 0.9%.
`Cn1c(=O)c2c(ncn2CC(=O)O)n(C)c1=O` [compound 2, theophylline-7-acetic acid, reference compound]: in series [1], the viability at 24 h, 50 µM turned out to be 85 ± 1.7%. Also, the inhibition at 25 µM in [2] was determined as 58.7 ± 1.82%.
In the case of `Cn1c(=O)c2c(ncn2CC(=O)N/N=C2/C(=O)Nc3ccccc32)n(C)c1=O` [compound 19, (E)-2-(1,3-Dimethyl-2,6-dioxo-1,2,3,6-tetrahydro-7H-purin-7-yl)-N′-(2-oxoindolin-3-ylidene)acetohydrazide], in [1], the viability at 24 h, 50 µM came to 89.5 ± 1.1%. In series [3], this compound showed an IC50 of 3.3 ± 0.2 µM. The “Decrease of IL-6 levels” value in series [4] (1 μM, RAW 264.7, in comparison to cells induced by LPS) worked out at 47.5%; in [4] (10 μM, RAW 264.7, in comparison to LPS treated cells) it was 57.7%. Moreover, the inhibition at 25 µM in series [2] came to 90 ± 0.88%. Further, the figures for the “Reduction of TNF-α” value in [5] (1 μM) and in series [5] (10 μM) were 31.8% and 53%, respectively. The half-life at 75 μM in series [6] is 1.8 h. Also, the “Reduction of IL-1β” value in [7] (1 μM) came to 49.4%. Moreover, the “Downregulation of IL-1β” value in series [7] (10 μM) worked out at 66.7%.
For `NC(=S)NN=C1C(=O)Nc2ccccc21` [isatin thiosemicarbazone], the Survival rate result in series [8] is on record as “approximately 100%”.
Take `Cn1c(=O)c2[nH]cnc2n(C)c1=O` [theophylline]: in series [9], the “Effect on TNF production” value was “suppress TNF production”.
